In brackets after ≈: the same amount, converted by molar mass.
Conditions: buffer; pH 7.4; 200.0 µM

Structure (SMILES) | solubility kinetic
CC(=O)NCc1ccc(C(=O)O)cc1 | > 29 µg/mL
Cl.NCCCCCC(=O)Nc1ccncc1 | > 36.6 µg/mL
CC(NC(=O)Cc1ccc([N+](=O)[O-])cc1)c1ccc2c(c1)OCO2 (stereo not given) | 7.9 µg/mL (≈ 24.1 µM)
Cc1ccc(NC(=O)CN2C(=O)NC3(CCCC3)C2=O)c(Cl)c1 | > 50.4 µg/mL
CC(Cc1ccccc1)N1Cc2ccccc2C1 (stereo not given) | 35.3 µg/mL (≈ 149 µM)
Cc1ccc(-c2noc(CCCC(=O)NC3CCCC3)n2)cc1 | 44 µg/mL (≈ 140 µM)
CCN(C(=O)COC(=O)/C=C/c1ccco1)C1CCCCC1 | 39.1 µg/mL (≈ 128 µM)
Cc1ccc(Nc2c([N+](=O)[O-])c(=O)oc3ccccc23)cc1 | 5.8 µg/mL (≈ 19.6 µM)
COc1ccccc1CN(C)C(=O)COC(=O)c1c(C)noc1C | > 49.9 µg/mL
CCOC(=O)c1sc(NC(=O)CSC(=S)N2CCOCC2)nc1C | 0.6 µg/mL (≈ 1.54 µM)
O=C(COC(=O)c1ccc[nH]c1=O)Nc1ccc(N2CCCCC2)cc1 | > 53.3 µg/mL
COC(=O)C1(C(=O)O)Cc2cc([N+](=O)[O-])ccc2N2CCCC21 (stereo not given) | 47.9 µg/mL (≈ 150 µM)
COCC(=O)Nc1ccc(N2CCOCC2)c(S(=O)(=O)Nc2ccc(OC)cc2)c1 | > 65.3 µg/mL
Clc1nc(NC2CCCC2)nc(N2CCOCC2)n1 | 5.1 µg/mL (≈ 18 µM)
Cc1onc(-c2c(F)cccc2Cl)c1C(=O)NCCN1CCNC1=O | > 55 µg/mL
O=C(N/N=C/c1ccc(O)c(O)c1)C1CC1 | > 33 µg/mL
CCc1ccc(S(=O)(=O)Nc2ccc(Cl)cn2)cc1 | 8.3 µg/mL (≈ 28 µM)
COc1ccc(/C=C2\SC(=N)N(c3ccc(F)cc3)C2=O)cc1OC | 3.8 µg/mL (≈ 10.6 µM)
COCCNc1ccc(N2C(=O)CCCC2=O)cc1[N+](=O)[O-] | 45.8 µg/mL (≈ 149 µM)
O=C(NCCc1ccccc1)c1cc2ccccc2oc1=O | < 0.6 µg/mL

Structure (SMILES) | solubility kinetic
O=S(=O)(c1ccc2oc(=S)[nH]c2c1)N1CCCCC1 | > 44.8 µg/mL
Cc1ccc(NC(=O)COC(=O)CC2CCCC2)cc1F | 29.5 µg/mL (≈ 101 µM)
N#C/C(=C\c1cccc(Br)c1)C(=O)N1CCCCC1 | > 47.9 µg/mL
COc1ccc(Nc2ncnc3sccc23)c(OC)c1 | 25.1 µg/mL (≈ 87.4 µM)
O=C1c2ccccc2C(=O)C1c1ccccn1 | 14.2 µg/mL (≈ 63.6 µM)
CC(=O)N1c2ccc(C)cc2C(c2ccccc2)CC1C (stereo not given) | 40.6 µg/mL (≈ 145 µM)
CC(C)CCNC(=O)c1cc2c(=O)[nH]c3ccccc3c2s1 | < 0.3 µg/mL
Cc1ccc(SC(=O)c2c(C)noc2-c2cc(C)on2)cc1 | 3 µg/mL (≈ 9.54 µM)
CC1CCCCC1NC(=S)Nc1ccc(Cl)cc1Cl (stereo not given) | 1 µg/mL (≈ 3.15 µM)
O=c1[nH]c(N2CCCCCC2)nc2ncn(Cc3ccccc3)c12 | 13 µg/mL (≈ 40.2 µM)
C=CCNc1cc(C)oc(=O)c1C(=O)CC | > 33.2 µg/mL
COc1ccc(C(=O)Nc2ccc(C3(C#N)CCCC3)cc2)cc1OC | < 0.4 µg/mL
S=C(NCc1ccco1)Nc1ccc(Oc2ccc(Cl)cc2)cc1 | < 0.4 µg/mL
O=C(NCCO)C(=O)Nc1cc2c3c(c1)CC(=O)N3CCC2 | > 45.5 µg/mL
CCOC(=O)COc1cccc2c(=O)n(CC(N)=O)ccc12 | 24.4 µg/mL (≈ 80.2 µM)
CCOC(=O)/C=C1/N(C)c2ccccc2C1(C)C | < 0.5 µg/mL
CCOc1ccc(Cl)cc1S(=O)(=O)N1CCC(C(=O)NCc2ccco2)CC1 | 3.6 µg/mL (≈ 8.43 µM)
Cl.NCCOc1ccc(C23CC4CC(CC(C4)C2)C3)cc1 | > 46.2 µg/mL
O=C(CSc1ccncc1)Nc1ccc2ccccc2c1 | 2.3 µg/mL (≈ 7.81 µM)
CCCCn1c(-c2cccs2)nc2oc3ccccc3c(=O)c2c1=O | 1.2 µg/mL (≈ 3.41 µM)

Structure (SMILES) | solubility kinetic
CC1CCCC(C)N1C(=O)CSc1nccc(=O)[nH]1 (stereo not given) | 29.3 µg/mL (≈ 104 µM)
CN(CC(=O)Nc1ccc(F)cc1)C(=O)c1ccc(OCc2cn3ccccc3n2)cc1 | 10.4 µg/mL (≈ 24 µM)
CN(C)/C(=N\S(=O)(=O)c1ccc(Br)cc1)c1ccccc1 | 50.2 µg/mL (≈ 137 µM)
CC(C)(C)C(=O)N1CCN(c2nc3ccccc3o2)CC1 | > 43.1 µg/mL
CC(=O)c1ccc(NC(=O)COC(=O)C2CC3C=CC2C3)cc1 (stereo not given) | > 47 µg/mL
CCOC(=O)C1CCCN(Cc2nc(C3CC3)no2)C1 (stereo not given) | 36.5 µg/mL (≈ 131 µM)
O=C(O)COc1ccccc1/C=N/NC(=O)c1ccc(F)cc1 | > 47.4 µg/mL
CCN(CC)C(=O)CCS(=O)(=O)c1cccc2nonc12 | 45.2 µg/mL (≈ 145 µM)
COc1ccc(C(=O)NC(C(=O)NCC2CCCO2)C(C)C)cc1 (stereo not given) | > 50.2 µg/mL
Cc1cccc(NC(=O)CCN2C(=O)c3ccccc3C2=O)c1 | > 46.3 µg/mL
Cc1cccc(OCCCn2c(=O)oc3ccc(C)cc32)c1 | 3.3 µg/mL (≈ 11.1 µM)
Cc1ccc(N2CC(C(=O)Nc3ccc4c(c3)OCO4)CC2=O)cc1C (stereo not given) | 1.8 µg/mL (≈ 5.11 µM)
C=CCNC(=O)c1ccccc1CCc1ccccc1 | > 39.8 µg/mL
COc1ccc(S(=O)(=O)n2cnc3ccccc32)c(C)c1 | 17 µg/mL (≈ 56.2 µM)
COc1ccc(OC)c(C(C)NC(=O)C(C)Cc2ccccc2)c1 (stereo not given) | 45.7 µg/mL (≈ 140 µM)
Cn1ccsc1=NC(=O)c1ccc(S(C)(=O)=O)cc1 | > 44.5 µg/mL
Cc1cccc(OCC(=O)OCC(=O)Nc2ccc(Cl)cn2)c1 | 32.5 µg/mL (≈ 97.1 µM)
O=C(CCNC(=O)c1ccccc1Cl)Nc1ccccc1N1CCCC1 | 48.6 µg/mL (≈ 131 µM)
NC(=O)COc1ccc(C(=O)/C=C2/C(=O)Nc3ccccc32)cc1 | 6.4 µg/mL (≈ 19.9 µM)
CC1CC(C)(C)NC(=S)N1CC(=O)NCc1ccc2c(c1)OCO2 (stereo not given) | 36.2 µg/mL (≈ 104 µM)

Source: PubChem BioAssay AID1996
